These results are taken from ChEMBL document CHEMBL1148165, “A novel amino acid glycoside and three amino acids from Allium sativum” (J Nat Prod, 1993).

pIC50: −log10 of the molar value. The source made the active and inactive calls. The calls are words filed in the database; no cut-off is given here.

For assay [1], the system named is Micrococcus luteus. Briefly: Antimicrobial activity against Micrococcus luteus ATCC 9341 at 25 ug. The class given is functional, organism-based.
Assay [2] has as its system Penicillium oxalicum. Kind of assay: Antimicrobial activity against Penicillium oxalicum CBS 219.30 at 25 ug. In kind it is functional, organism-based.
Assay [3] concerns Escherichia coli. Kind of assay: Antimicrobial activity against Escherichia coli ATCC 25922 at 25 ug. In kind it is functional, organism-based.
Assay [4] has as its system Bacillus subtilis. Briefly: Antimicrobial activity against Bacillus subtilis ATCC 6633 at 25 ug. The class given is functional, organism-based.
The subject of assay [5] is Platelet. Kind of assay: Inhibition of collagen-induced platelet aggregation in human platelet-rich plasma at 1 mM by turbidimetric method. In kind it is functional. Details: Activity: scale not given: the % may be the effect or the level left.
For assay [6], the system named is Platelet. Kind of assay: Inhibition of ADP-induced platelet aggregation in human platelet-rich plasma at 1 mM by turbidimetric method. In kind it is functional. The arrangement: Activity: scale not given: the % may be the effect or the level left.
Assay [7] relates to Platelet. Kind of assay: Inhibition of epinephrine-induced platelet aggregation in human platelet-rich plasma at 1 mM by turbidimetric method. The arrangement: scale not given: the % may be the effect or the level left. The class given is functional.
Assay [8] has as its system Platelet. Kind of assay: Inhibition of collagen-induced platelet aggregation in human platelet-rich plasma assessed as increase in lag time at 1 mM by turbidimetric method. In kind it is functional. Details: scale not given: the % may be the effect or the level left.

Turning to `C/C=C/[S+]([O-])C[C@H](N)C(=O)O` (some centres not stated), the result in assay [1], in assay [2], in assay [3] and in assay [4] was inactive.
In general, pIC50 refers to the IC50 on a negative log10 scale, so that one unit is a factor of ten. Consider `C=CC[S+]([O-])C[C@H](N)C(=O)O` (some centres not stated) [ALLIIN], for which the result in assay [1], in assay [2], in assay [3] and in assay [4] was inactive. In addition, the pIC50 in assay [5] (Homo sapiens, Platelet, Plasma) is 4.22; in assay [6] (Homo sapiens, Platelet, Plasma), 4.22.
Regarding `C=CC[S+]([O-])C[C@H](NC[C@@]1(O)OC[C@@H](O)[C@@H](O)[C@@H]1O)C(=O)O` (some centres not stated), the outcome in assay [1], in assay [2], in assay [3] and in assay [4] was inactive. For the same compound, the Activity in assay [7] turned out to be 40.2%; in assay [8], 50%; in assay [5], 82%; in assay [6], 39.2%.
Turning to `C[S+]([O-])C[C@H](N)C(=O)O` (some centres not stated), the outcome in assay [1], in assay [2], in assay [3] and in assay [4] was inactive.
